Measurements published in patent publication US20120302616A1, “METHOD OF TREATMENT OF OBSESSIVE COMPULSIVE DISORDER WITH ONDANSETRON” (priority 2010, published 2012).
Several values for one entry are separate records, joined by “and”; a condition that tells them apart may be missing. Identical values can stand only once.

System: patients with treatment-resistant OCD
Assay: Ondansetron augmentation of SRI therapy, single-blind 12-week study with 4-week discontinuation follow-up (YBOCS, CGI)
Format: in vivo, human
Parameters: reduction in CGI-I from baseline: concentration or dose not given beside the values
Conditions: for CGI-I Score / YBOCS % Reduction / YBOCS Score: individual patients (21); for Compulsion Subdomain YBOCS % Reduction / Obsession Subdomain YBOCS % Reduction / Compulsion Subdomain YBOCS Score / Obsession Subdomain YBOCS Score: individual patients
Protocol: Twenty-one patients with a DSM-IV diagnosis of treatment-resistant OCD, under stable treatment with SRIs approved by the FDA for OCD therapy, received 12 weeks of single-blind ondansetron augmentation initiated at a dose of 0.25 mg twice daily for 2 weeks, and titrated to 0.5 mg twice daily for 10 weeks. Patients were rated every two weeks using the Yale Brown Obsessive Compulsive Scale (YBOCS) and Clinical Global Impressions Scale (CGI). Treatment-resistant patients were defined as having completed an adequate trial of SRIs at a moderate to high dose for at least 12 weeks and still having a YBOCS severity of >24, and CGI-Severity of ≧4. Treatment response was defined as an additional 25% reduction in YBOCS score from YBOCS score at the initiation of ondansetron augmentation, an end of treatment (EOT) period YBOCS of ≦24, and CGI-Improvement (CGI-I) of ≦2. Additionally, ondansetron was discontinued after 12 weeks and patients were followed up for another 4 weeks for relapse in YBOCs symptoms. The obsession and compulsion subdomains of the Y-BOCS were also analyzed to determine whether ondansetron would selectively affect one subdomain or the other.

[1] = Week 14 (after discontinuation), Non-Responders
[2] = Week 14 (after discontinuation), Responders
[3] = Week 16 (after discontinuation), Non-Responders
[4] = Week 16 (after discontinuation), Responders

Cc1nccn1CC1CCc2c(c3ccccc3n2C)C1=O (stereo not shown) [ondansetron]
tolerability of treatment (0.25 mg twice daily 2 weeks, then 0.5 mg twice daily 10 weeks): well tolerated
CGI-I Score (6 Weeks): 2 (7×) and 3 (2×) and 5 (6×) and 1 (3×) and 4 (3×)
YBOCS % Reduction (6 Weeks): 16.00% and 0.00% (3×) and 5.00%
YBOCS Score (6 Weeks): 22 and 19 (3×) and 28 and 21 (2×) and 27 and 24 (2×) and 14 and 29 (3×) and 38 and 32 and 17 and 25 and 16 and 26 and 31
Compulsion Subdomain YBOCS % Reduction (6 weeks, Non-Responders): −7.14% and 5.00% and −13.33% and −15.38% and 13.33% and 14.29% and 0.00% and 12.50% and −16.67%
Obsession Subdomain YBOCS % Reduction (6 weeks, Non-Responders): 16.67% and 0.00% (3×) and 5.00% and −7.69% and −6.67% and 6.25% and 12.50%
Compulsion Subdomain YBOCS % Reduction (6 weeks, Responders): 38.46% and 33.33% (2×) and 29.41% and 52.94% and 25.00% and 58.33% and 50.00% and 18.75% and 53.33% and 40.00% and 16.67%
Obsession Subdomain YBOCS % Reduction (6 weeks, Responders): 26.67% and 35.29% and 25.00% (3×) and 31.25% and 33.33% and 23.08% and 20.00% and 29.41% and 28.57% and 15.38%
CGI-I Score (12 Weeks): 1 (10×) and 5 (8×) and 4 and 2 (2×)
YBOCS % Reduction (12 Weeks): 44.00% and 50.00% and 2.50% and −7.14%
YBOCS Score (12 Weeks): 21 (2×) and 17 and 28 and 14 (2×) and 16 (3×) and 19 (2×) and 23 and 13 and 25 and 39 and 34 and 30 (2×) and 29 and 15 and 27
average reduction in CGI-I scores for the whole group (12 weeks): 46%
Compulsion Subdomain YBOCS % Reduction (12 weeks, Non-Responders): 7.14% and 0.00% (2×) and −26.67% and −23.08% and 6.67% and 14.29% and 12.50% and −8.33%
Obsession Subdomain YBOCS % Reduction (12 weeks, Non-Responders): 16.67% and 14.29% and 5.00% and 0.00% (2×) and −7.69% and −7.14% and 12.50% (2×)
Compulsion Subdomain YBOCS % Reduction (12 weeks, Responders): 38.46% and 46.67% (2×) and 41.18% and 58.82% and 45.00% and 58.33% and 64.29% and 43.75% and 53.33% and 33.33% and 41.67%
Obsession Subdomain YBOCS % Reduction (12 weeks, Responders): 46.67% and 52.94% and 43.75% (2×) and 44.44% and 33.33% (3×) and 30.77% and 35.29% and 35.71% and 46.15%
difference between YBOCS score at baseline and after 12 weeks (Non-responders): 2.9%
Compulsion Subdomain YBOCS Score, Mean (Week 2, Non-Responders): 14.78
Obsession Subdomain YBOCS Score, Mean (Week 2, Non-Responders): 14.67
Compulsion Subdomain YBOCS Score (Week 2, Non-Responders): 15
Obsession Subdomain YBOCS Score (Week 2, Non-Responders): 12
Compulsion Subdomain YBOCS Score, Mean (Week 2, Responders): 11.33
Obsession Subdomain YBOCS Score, Mean (Week 2, Responders): 12.58
Compulsion Subdomain YBOCS Score (Week 2, Responders): 11 and 12 (5×) and 10 (3×) and 16 and 5 and 14
Obsession Subdomain YBOCS Score (Week 2, Responders): 12 (4×) and 14 (3×) and 10 and 11 (2×) and 13 and 16
Compulsion Subdomain YBOCS Score, Mean (Week 4, Non-Responders): 15.00
Obsession Subdomain YBOCS Score, Mean (Week 4, Non-Responders): 14.44
Compulsion Subdomain YBOCS Score (Week 4, Non-Responders): 15
Obsession Subdomain YBOCS Score (Week 4, Non-Responders): 11
Compulsion Subdomain YBOCS Score, Mean (Week 4, Responders): 10.08
Obsession Subdomain YBOCS Score, Mean (Week 4, Responders): 11.50
Compulsion Subdomain YBOCS Score (Week 4, Responders): 9 (3×) and 11 (2×) and 12 and 14 and 5 and 10 (2×) and 13 and 8
Obsession Subdomain YBOCS Score (Week 4, Responders): 11 (3×) and 13 (4×) and 12 (2×) and 9 and 10 (2×)
Compulsion Subdomain YBOCS Score, Mean (Week 6, Non-Responders): 15.00
Obsession Subdomain YBOCS Score, Mean (Week 6, Non-Responders): 14.56
Compulsion Subdomain YBOCS Score (Week 6, Non-Responders): 15
Obsession Subdomain YBOCS Score (Week 6, Non-Responders): 10
Compulsion Subdomain YBOCS Score, Mean (Week 6, Responders): 9.50
Obsession Subdomain YBOCS Score, Mean (Week 6, Responders): 10.83
Compulsion Subdomain YBOCS Score (Week 6, Responders): 8 (2×) and 10 (3×) and 12 and 15 and 5 and 7 (2×) and 13 and 9
Obsession Subdomain YBOCS Score (Week 6, Responders): 11 (4×) and 12 (4×) and 9 (2×) and 10 (2×)
Compulsion Subdomain YBOCS Score, Mean (Week 8, Non-Responders): 15.22
Obsession Subdomain YBOCS Score, Mean (Week 8, Non-Responders): 14.44
Compulsion Subdomain YBOCS Score (Week 8, Non-Responders): 13
Obsession Subdomain YBOCS Score (Week 8, Non-Responders): 10
Compulsion Subdomain YBOCS Score, Mean (Week 8, Responders): 8.83
Obsession Subdomain YBOCS Score, Mean (Week 8, Responders): 10.00
Compulsion Subdomain YBOCS Score (Week 8, Responders): 8 and 9 (2×) and 10 (3×) and 7 and 15 and 5 (2×) and 12 and 6
Obsession Subdomain YBOCS Score (Week 8, Responders): 8 (2×) and 10 (5×) and 12 (3×) and 9 (2×)
Compulsion Subdomain YBOCS Score, Mean (Week 10, Non-Responders): 15.44
Obsession Subdomain YBOCS Score, Mean (Week 10, Non-Responders): 14.44
Compulsion Subdomain YBOCS Score, Mean (Week 10, Responders): 8.17
Obsession Subdomain YBOCS Score, Mean (Week 10, Responders): 9.33
Compulsion Subdomain YBOCS Score (Week 10, Responders): 8 (3×) and 9 and 10 (2×) and 7 and 11 (2×) and 5 (2×) and 6
Obsession Subdomain YBOCS Score (Week 10, Responders): 8 (3×) and 10 (4×) and 9 (4×) and 12
Compulsion Subdomain YBOCS Score, Mean (Week 12, Non-Responders): 15.22
Obsession Subdomain YBOCS Score, Mean (Week 12, Non-Responders): 14.22
Compulsion Subdomain YBOCS Score, Mean (Week 12, Responders): 7.92
Obsession Subdomain YBOCS Score, Mean (Week 12, Responders): 8.83
Compulsion Subdomain YBOCS Score (Week 12, Responders): 8 (3×) and 10 (2×) and 7 (3×) and 11 and 5 (2×) and 9
Obsession Subdomain YBOCS Score (Week 12, Responders): 8 (4×) and 9 (4×) and 10 (2×) and 11 and 7
Compulsion Subdomain YBOCS Score, Mean [1]: 15.00
Obsession Subdomain YBOCS Score, Mean [1]: 14.00
Compulsion Subdomain YBOCS Score, Mean [2]: 10.67
Obsession Subdomain YBOCS Score, Mean [2]: 11.25
Compulsion Subdomain YBOCS Score [2]: 8 (2×) and 13 (3×) and 11 (3×) and 6 and 12 (2×) and 10
Obsession Subdomain YBOCS Score [2]: 9 (2×) and 14 (2×) and 12 (3×) and 13 and 11 (2×) and 8 and 10
Compulsion Subdomain YBOCS Score, Mean [3]: 14.78
Obsession Subdomain YBOCS Score, Mean [3]: 13.67
Compulsion Subdomain YBOCS Score, Mean [4]: 11.50
Obsession Subdomain YBOCS Score, Mean [4]: 11.67
Compulsion Subdomain YBOCS Score [4]: 8 (2×) and 13 (4×) and 14 and 12 (2×) and 15 and 6 and 11
Obsession Subdomain YBOCS Score [4]: 9 (2×) and 15 and 13 and 12 (3×) and 14 (2×) and 8 and 11 (2×)
overall ondansetron effects for obsessions versus compulsions (YBOCS subdomains): comparable
reduction in CGI-I from baseline (responders, after 12 weeks): 77%
reduction in YBOCS from baseline (responders, after 12 weeks): 44%
